Laboratory results published in the Deep4Chem optical property database.
Values joined by “and” are separate entries in the source; they are usually repeats but may differ in a detail not shown here. Equal values may be shown once.

Experiment: solvent given as SMILES

F[B-]1(F)OC(c2ccccc2)=Cc2cc3[n+](c[n+]21)[B-](F)(F)OC(c1ccccc1)=C3
absorption maximum (in ClCCl): 475 nm

CCO[B-]1(OCC)n2c(C)cc(C)c2C(c2ccc(I)cc2)=C2C(C)=CC(C)=[N+]21
absorption maximum (in ClC(Cl)Cl): 505 nm

CCC(C)(C)c1ccc2c(c1)C(CCOC)(CCOC)c1cc(-c3ccc4c(c3)C(CCOC)(CCOC)c3cc(C(C)(C)CC)ccc3-4)ccc1-2
absorption maximum (in C1CCCCC1): 331 nm

Cn1c(=O)c(/N=N/c2cc(S(=O)(=O)O)ccc2S(=O)(=O)O)c(O)c2ccccc21
absorption maximum (in C1CCOC1): 428 nm | absorption maximum (in CC(C)=O): 421 nm | absorption maximum (in CCOC(C)=O): 423 nm | absorption maximum (in CO): 422 nm | absorption maximum (in CS(C)=O): 419 nm | absorption maximum (in Cc1ccccc1): 430 nm | absorption maximum (in ClCCl): 415 nm | absorption maximum (in O): 413 nm

CC(C)[Si](C#Cc1cc2c3c(c1)c(=C(c1ccccc1)c1ccccc1)c1cc(C#C[Si](C(C)C)(C(C)C)C(C)C)cc4c1N3c1c(cc(C#C[Si](C(C)C)(C(C)C)C(C)C)cc1c4=C(c1ccccc1)c1ccccc1)c2=C(c1ccccc1)c1ccccc1)(C(C)C)C(C)C
absorption maximum (in ClCCl): 404 nm

O=C(O)CCCc1cc(C#Cc2ccccc2)c2ccc3c(C#Cc4ccccc4)cc(C#Cc4ccccc4)c4ccc1c2c34
absorption maximum (in CS(C)=O): 451 nm | absorption maximum (in ClC(Cl)(Cl)Cl): 445 nm

CCCCCCN1C(=O)c2cccc3c(-c4ccc(-c5cc(-c6ccc(OC)cc6)n(-c6ccccc6)n5)s4)ccc(c23)C1=O
absorption maximum (in ClCCl): 403 nm

CCN1\C(=C/C=C/C=C/C2=[N+](CC)c3ccc4cc(Br)ccc4c3C2(C)C)C(C)(C)c2c1ccc1cc(Br)ccc21
absorption maximum (in C1CCOC1): 683 nm | absorption maximum (in CC#N): 680 nm | absorption maximum (in CC(C)=O): 682 nm | absorption maximum (in CCO): 685 nm | absorption maximum (in CN(C)C=O): 686 nm | absorption maximum (in CO): 681 nm | absorption maximum (in CS(C)=O): 689 nm | absorption maximum (in ClCCl): 697 nm

O=C1c2cc(-n3c4ccccc4c4ccccc43)ccc2S(=O)(=O)c2ccc(-n3c4ccccc4c4ccccc43)cc21
absorption maximum (in C1CCOC1): 406 nm | absorption maximum (in CCCCCC): 406 nm | absorption maximum (in Cc1ccccc1): 406 nm | absorption maximum (in ClC(Cl)Cl): 406 nm | absorption maximum (in ClCCl): 406 nm

O=c1c2cc(S(=O)(=O)O)ccc2[nH]c2ccc(S(=O)(=O)O)cc12
absorption maximum (in CS(C)=O): 399 nm | absorption maximum (in O): 396 nm

COc1ccc(C2CC(=O)Oc3c2c2nc4ccccc4nc2c2ccccc32)cc1 (stereo not given)
absorption maximum (in ClC(Cl)Cl): 406 nm

COc1ccc2oc(-c3cc4cc(OC)ccc4oc3=O)cc2c1
absorption maximum (in CC#N): 382 nm | absorption maximum (in CCOC(C)=O): 384 nm | absorption maximum (in CS(C)=O): 389 nm | absorption maximum (in Cc1ccccc1): 388 nm | absorption maximum (in O): 347 nm

CCOC(=O)c1cc(C(=O)OCC)c2ccc(C)cc2n1
absorption maximum (in CCO): 321 nm

CC(C)(C)c1ccc2c(c1)c1ccc3cccc4c5cccc6oc(=O)c2c(c65)c1c34
absorption maximum (in C1CCOC1): 412 nm

COC(=O)C(NC(=O)CCNc1cccc2ccccc12)C(C)C (stereo not given)
absorption maximum (in CCO): 330 nm

O=CC1=C(c2ccc(-c3cccs3)s2)CCC1
absorption maximum (in C1CCOC1): 377 nm | absorption maximum (in CC#N): 374 nm | absorption maximum (in CCCCCC): 366 nm | absorption maximum (in CCO): 386 nm | absorption maximum (in OCCOCCO): 377 nm | absorption maximum (in c1ccncc1): 385 nm

Cc1ccc2ccccc2c1
absorption maximum (in C1CCCCC1): 303.77 nm

N#Cc1ccc(Oc2ccc3c4c(cccc24)C(=O)N(CCO)C3=O)cc1
absorption maximum (in ClC(Cl)Cl): 352 nm

c1ccc2nc3c(nc2c1)c1c2n3CCCN2CCCC1
absorption maximum (in CC#N): 419 nm | absorption maximum (in CCCCCC): 408 nm | absorption maximum (in CS(C)=O): 441 nm

COc1cc2c(cc1/C=C(\C#N)c1nc3ccccc3s1)c1ccccc1n2C
absorption maximum (in C1CCOC1): 433 nm | absorption maximum (in CC#N): 431 nm | absorption maximum (in CCOC(C)=O): 430 nm | absorption maximum (in CN(C)C=O): 439 nm | absorption maximum (in CO): 437 nm | absorption maximum (in CS(C)=O): 443 nm | absorption maximum (in Cc1ccccc1): 431 nm | absorption maximum (in ClC(Cl)Cl): 434 nm | absorption maximum (in ClCCl): 435 nm

COc1ccc(C2=C(c3ccc(OC)cc3)C(C)(C)c3cc(-c4ccccc4)ccc32)cc1
absorption maximum (in C1CCCCC1): 305 nm

Cc1cc2c3ccccc3[nH]c2c2[nH]c3ccccc3c12
absorption maximum (in ClCCl): 323 nm

CC(=O)c1ccc(-c2ccc3c(c2)C(=O)c2cc(-c4ccc(C(C)=O)cc4)ccc2-3)cc1
absorption maximum (in C1CCOC1): 343 nm

CCCC1(CCC)c2cc(-c3ccc(-c4ccc(OC)cc4)o3)ccc2-c2ccc(-c3ccc(-c4ccc(OC)cc4)o3)cc21
absorption maximum (in C1CCCCC1): 410 nm

Cc1cccc(NC(=O)c2ccc(N(C)C)cc2)c1
absorption maximum (in C1CCCCC1): 306 nm | absorption maximum (in C1CCOC1): 311 nm | absorption maximum (in CC#N): 314 nm | absorption maximum (in CCOCC): 306 nm

O=C(O)c1cc(O)c(O)c(O)c1
absorption maximum (in O): 258 nm

CCOc1cccc(-c2nc3c(c4c2-c2ccccc2CC4)-c2ccccc2CC3)c1O
absorption maximum (in ClCCl): 335 nm

CC1CC=C(c2ccc(-c3cccs3)s2)CC1 (stereo not given)
absorption maximum (in C1CCOC1): 341 nm | absorption maximum (in CC#N): 341 nm | absorption maximum (in CCCCCC): 341 nm | absorption maximum (in CCO): 336 nm | absorption maximum (in OCCOCCO): 341 nm | absorption maximum (in c1ccncc1): 343 nm

c1ccc2c3c(ccc2c1)-c1cccc2c1c-3cc1ccccc12
absorption maximum (in CCCCCCC): 383 nm

CC(C)(C)c1ccc(-c2c(-c3ccc(N(c4ccccc4)c4ccccc4)cc3)cc(-c3ccc(N(c4ccccc4)c4ccccc4)cc3)c(-c3ccc(C(C)(C)C)cc3)c2-c2ccc(C(C)(C)C)cc2)cc1
absorption maximum (in C1CCOC1): 316 nm

COc1ccc(C(=O)/C=C2\C(=O)Nc3ccccc32)cc1
absorption maximum (in C1COCCO1): 337 nm | absorption maximum (in CC#N): 335 nm | absorption maximum (in CC(C)(C)O): 345 nm | absorption maximum (in CC(C)O): 345 nm | absorption maximum (in CCCCO): 345 nm | absorption maximum (in CCOC(C)=O): 339 nm | absorption maximum (in CN(C)C=O): 344 nm | absorption maximum (in CO): 343 nm | absorption maximum (in ClCCl): 339 nm | absorption maximum (in O): 347 nm

COc1ccc(-c2cnc(-c3ccccc3)o2)cc1OC
absorption maximum (in ClCCl): 322 nm

O=C1CC(=O)Nc2cc(Cl)ccc2N1
absorption maximum (in CS(C)=O): 298 nm

Nc1cc2nc3cc(F)c(F)cc3nc2cc1N
absorption maximum (in CCO): 433 nm

FC(F)(F)c1ccc(C#Cc2cc(C#Cc3ccc(C(F)(F)F)cc3)c3ccc4c(C#Cc5ccc(C(F)(F)F)cc5)cc(C#Cc5ccc(C(F)(F)F)cc5)c5ccc2c3c54)cc1
absorption maximum (in ClCCl): 467 nm

Cc1ccc(-c2cc(/C=C/c3ccc(N(c4ccccc4)c4ccccc4)cc3)c(C#N)c(N3CCCCC3)c2)cc1
absorption maximum (in CS(C)=O): 401 nm

CC(C)=O
absorption maximum (in CCCCCC): 279 nm

O=S(=O)([O-])c1ccc(O)c2ccccc12
absorption maximum (in C1COCCO1): 322 nm | absorption maximum (in CC#N): 322 nm | absorption maximum (in CC(C)O): 321 nm | absorption maximum (in CCCCO): 321 nm | absorption maximum (in CCO): 321 nm | absorption maximum (in CCOC(C)=O): 322 nm | absorption maximum (in CN(C)C=O): 324 nm | absorption maximum (in CO): 321 nm | absorption maximum (in CS(C)=O): 325 nm | absorption maximum (in O): 319 nm

Cc1cc(C)c(B2c3cc(C(C)(C)C)cc4ccc5c6ccccc6c6cc(C(C)(C)C)cc2c6c5c34)c(C)c1
absorption maximum (in C1CCCCC1): 424 nm

CN(C)c1ccc(/C=C/c2cc[n+](C)cc2)cc1
absorption maximum (in C1CCOC1): 483 nm | absorption maximum (in CC1COC(=O)O1): 473 nm | absorption maximum (in CC#N): 470 nm | absorption maximum (in CC(C)=O): 474 nm and 468 nm | absorption maximum (in CC(C)O): 477 nm | absorption maximum (in CCO): 480 nm | absorption maximum (in CCOC(C)=O): 464 nm | absorption maximum (in CO): 476 nm and 474 nm | absorption maximum (in CS(C)=O): 471 nm | absorption maximum (in ClC(Cl)Cl): 500 nm | absorption maximum (in ClCCl): 522 nm | absorption maximum (in O): 448 nm | absorption maximum (in c1ccncc1): 494 nm

CN(C)c1ccc(C2=Nc3sc4ccccc4[n+]3[B-](F)(F)O2)cc1
absorption maximum (in C1CCOC1): 424 nm | absorption maximum (in CC#N): 421 nm | absorption maximum (in CC(C)=O): 425 nm | absorption maximum (in Cc1ccccc1): 421 nm | absorption maximum (in ClCCl): 425 nm

COc1ccc(C(=Cc2ccc(/C=C/c3ccc(C#N)cc3)cc2)c2ccc(OC)cc2)cc1
absorption maximum (in C1CCOC1): 379 nm

O=c1ccc2cc3c(cc2o1)OCC3
absorption maximum (in CC(C)O): 333 nm | absorption maximum (in CCO): 333 nm | absorption maximum (in CCOCC): 330 nm | absorption maximum (in CO): 333 nm | absorption maximum (in O): 336 nm

CCn1c(-c2ccc(-c3cccc4ccccc34)cc2)c(-c2ccc3ccccc3c2)c(-c2ccc3ccccc3c2)c1-c1ccc(-c2cccc3ccccc23)cc1
absorption maximum (in CCOC(C)=O): 292 nm

CC1(C)c2ccccc2-c2ccc(N3c4ccc(-c5ccc(/C=C6\C(=O)c7ccc(C(=O)O)cc7C6=O)s5)cc4C4CCCC43)cc21 (stereo not given)
absorption maximum (in ClC(Cl)Cl): 608 nm

N#Cc1cc2ccc([O-])cc2oc1=O
absorption maximum (in O): 408 nm

COc1ccc(/C=C/c2nc3ccccc3s2)cc1
absorption maximum (in C1CCCCC1): 350 nm | absorption maximum (in CO): 350 nm

C[Si]1(C)C(c2ccccc2)=Cc2ccccc21
absorption maximum (in ClCCl): 333 nm

CN1C(C(=O)Nc2ccccn2)=C(O)c2sccc2S1(=O)=O
absorption maximum (in C1COCCO1): 344 nm | absorption maximum (in CC#N): 355 nm | absorption maximum (in CCCCO): 350 nm | absorption maximum (in CCCO): 350 nm | absorption maximum (in CCO): 351 nm | absorption maximum (in CCOC(C)=O): 342 nm | absorption maximum (in CO): 354 nm

Cc1ccc2sc3cc(CCC(=O)O)ccc3c(=O)c2c1
absorption maximum (in CC#N): 401 nm | absorption maximum (in CO): 402 nm

CCCCCc1c(C(=O)c2ccc3c4c(cccc24)-c2cccc4c2C3CC=C4)c2ccc3cccc4c5cccc6ccc1c(c65)c2c34 (stereo not given)
absorption maximum (in ClCCl): 470 nm

c1ccc(Cn2c3sccc3c3c4nsnc4c4c5ccsc5n(Cc5ccccc5)c4c32)cc1
absorption maximum (in Cc1ccccc1): 424 nm | absorption maximum (in ClCCl): 424 nm

COc1cc(/C=C/c2ncc(-c3ccncc3)o2)cc(OC)c1OC
absorption maximum (in ClCCl): 352 nm

COc1cc2c(cc1-c1ccsc1)Cc1c3c(c4c(c1-2)-c1cc(OC)c(-c2ccsc2)cc1C4)C(=O)N(CCC(C)C)C3=O
absorption maximum (in C1CCOC1): 417 nm

Cc1ccc(C(=O)NN2C3=C(CC4=C2CCCC4=O)C(=O)CCC3)cc1
absorption maximum (in C1CCOC1): 366 nm | absorption maximum (in CC#N): 368 nm | absorption maximum (in CC(C)=O): 366 nm | absorption maximum (in CCCCCO): 376 nm | absorption maximum (in CO): 374 nm | absorption maximum (in ClC(Cl)Cl): 370 nm | absorption maximum (in ClCCl): 366 nm
